Consider six compounds from ChEMBL document CHEMBL4665869, “New thiazolopyrimidine as anticancer agents: Synthesis, biological evaluation, DNA binding, molecular modeling and ADMET study” (Bioorg Med Chem Lett, 2020).

Values after ≈ are worked out from the molar mass of the structure shown.

The term IC50 denotes the concentration at which inhibition is half-maximal.

The assay deals with DNA. Briefly: Displacement of methyl green from DNA (unknown origin) assessed as DNA intercalation after 24 hrs by colorimetric assay. It counts as nucleic-acid assay.

Consider `Cc1ccc(/C=C/C2=CC(c3ccc(C)cc3)N3C=CSC3=N2)cc1` (stereo unspecified), for which the IC50 was 62.74 µg/mL (≈ 182 µM).
The value for `Clc1ccc(/C=C/C2=CC(c3ccc(Cl)cc3)N3C=CSC3=N2)cc1` (stereo unspecified) was 56.33 µg/mL (≈ 146 µM); that for `COc1ccc(/C=C/C2=CC(c3ccc(OC)c(OC)c3)N3C=C(C)SC3=N2)cc1OC` (stereo unspecified) was 58.32 µg/mL (≈ 129 µM); that for `CC1=CSC2=NC(/C=C/c3ccc(C)cc3)=CC(c3ccc(C)cc3)N12` (stereo unspecified) was 83.41 µg/mL (≈ 233 µM).
Take `CCOC(=O)C1=CSC2=NC(/C=C/c3ccc(OC)cc3)=CC(c3ccc(OC)cc3)N12` (stereo unspecified): the concentration for half-maximal inhibition (IC50) came to 28.38 µg/mL (≈ 63.3 µM).
Turning to `CCOC(=O)C1=CSC2=NC(/C=C/c3cccs3)=CC(c3cccs3)N12` (stereo unspecified), the IC50 is 66.01 µg/mL (≈ 165 µM).
